Measurements: patent publication US8859549B2, “Potassium channel modulators” (AbbVie, Inc., priority 2011, dated 2014)

Target: T1, KCNQ 2/3 channels (Homo sapiens, UniProt O43525+O43526)
T1 construct: expressed in transfected cells; host or cells: HEK293
Assay: KCNQ 2/3 channel activation, thallium flux FLIPR assay (BTC-AM dye)
Type: cell-based
Conditions: for Emax: HEK293, maximum response relative to the response of 10 μM retigabine (set at 100%), read-out: % MAX; for EC50: HEK293 cells stably expressing human KCNQ2 and KCNQ3 subunits, thallium-induced fluorescence, 4 min compound incubation
Experimental: The following example describes the assay that can be used to identify compounds that activate KCNQ 2/3 channels.
HEK293 cells stably expressing human KCNQ2 and KCNQ3 subunits were seeded in 96-well, black-walled, clear-bottomed, poly-D-lysine coated plates (BD Biosciences, Bedford, Mass.) at a density of 1×10^5 cells per well 24 hours before the assay. On the assay day, BTC-AM dye (Invitrogen, Carlsbad, Calif.) was loaded into the cells by replacing the cell culture medium with 55 μL/well of 3 μg/mL dye in DPBS. Dye loading was allowed to proceed for 2 hours at room temperature and then cells were washed twice with 50 μL/well of assay buffer (in mM: 10 HEPES pH 7.3, 5 glucose, 140 Na-gluconate, 2.5 K-gluconate, 3.6 Ca-gluconate, 2 MgSO4, 0.1 Ouabain) to remove unloaded dye. Cells were incubated in 50 μL of assay buffer before loading onto a FLIPR system (Molecular Devices, Sunnyvale, Calif.). Various concentrations of compounds to be assayed were added to the cells in 50 μL of assay buffer and incubated for 4 minutes. The fluorescence signal was initiated by adding 100 μL of assay buffer containing 6 mM TlNO3 and 10 mM K2SO4. Fluors were excited using the 488-nm line of an argon laser and emission was filtered using a 540±30 nm bandpass filter. Fluorescent signals were recorded for 3 minutes. Sums of the responses over basal responses were plotted versus concentrations of test compounds to obtain an EC50 value. The maximum response for each test compound was determined relative to the response produced by 10 μM retigabine. The maximum response of retigabine at 10 μM was set at 100%.

Row | Structure (SMILES) | Emax (HEK293 KCNQ2/KCNQ3 cells) [%] | EC50 [nM] | % MAX (maximum response relative to the response of 10 μM retigabine (set at 100%), HEK293 KCNQ2/KCNQ3 cells) [%]
1 | O=C(Cc1ccc(Cl)cc1)Nn1nc(CCO)c2ccccc2c1=O [Example 121, 2-(4-chlorophenyl)-N-[4-(2-hydroxyethyl)-1-oxophthalazin-2(1H)-yl]acetamide] | 10.5 | – | –
2 | CC(C)(C)OC(=O)NCc1nn(NC(=O)CC2CCC(F)(F)CC2)c(=O)c2ccccc12 [Example 124, tert-butyl[(3-{[(4,4-difluorocyclohexyl)acetyl]amino}-4-oxo-3,4-dihydrophthalazin-1-yl)methyl]carbamate] | 72.5 | 8050 | –
3 | CS(=O)(=O)c1ccc(CC(=O)Nn2nc(N3CCOCC3)c3ccccc3c2=O)cc1 [Example 130, 2-[4-(methylsulfonyl)phenyl]-N-[4-(morpholin-4-yl)-1-oxophthalazin-2(1H)-yl]acetamide] | 5.33 | – | –
4 | O=C(CC1CC2CCC1C2)Nn1nc(C(=O)O)c2ccccc2c1=O (racemic) [Example 55, (±)-3-{[(exo)-bicyclo[2.2.1]hept-2-ylacetyl]amino}-4-oxo-3,4-dihydrophthalazine-1-carboxylic acid] | 149 | 1370 | –
5 | COC(=O)N[C@H](C(=O)NCc1nn(NC(=O)Cc2ccc(Cl)cc2)c(=O)c2ccccc12)C(C)C [Example 183, methyl[(2S)-1-{[(3-{[(4-chlorophenyl)acetyl]amino}-4-oxo-3,4-dihydrophthalazin-1-yl)methyl]amino}-3-methyl-1-oxobutan-2-yl]carbamate] | 5.96 | – | –
6 | CCOC(=O)Cc1nn(NC(=O)Cc2ccc(Cl)cc2)c(=O)c2ccccc12 [Example 116, ethyl(3-{[(4-chlorophenyl)acetyl]amino}-4-oxo-3,4-dihydrophthalazin-1-yl)acetate] | 61.4 | 7620 | –
7 | CCOC(=O)NCc1nn(NC(=O)Cc2ccc(Cl)cc2)c(=O)c2ccccc12 [Example 85, ethyl[(3-{[(4-chlorophenyl)acetyl]amino}-4-oxo-3,4-dihydrophthalazin-1-yl)methyl]carbamate] | 87.3 | 5350 | –
8 | COC(=O)c1cc(-c2nn(NC(=O)CC3CC4CCC3C4)c(=O)c3ccccc23)ccn1 (racemic) [Example 74, (±)-methyl 4-(3-{[(exo)-bicyclo[2.2.1]hept-2-ylacetyl]amino}-4-oxo-3,4-dihydrophthalazin-1-yl)pyridine-2-carboxylate] | 21.8 | – | –
9 | Cc1cccc(CC(=O)Nn2nc(N3CCOCC3)c3ccccc3c2=O)c1 [Example 140, 2-(3-methylphenyl)-N-[4-(morpholin-4-yl)-1-oxophthalazin-2(1H)-yl]acetamide] | 103 | 6890 | –
10 | O=C(CC1CC2CCC1C2)Nn1nc(C2CCOCC2)c2ccccc2c1=O (racemic) [Example 28, (±)-2-[(exo)-bicyclo[2.2.1]hept-2-yl]-N-[1-oxo-4-(tetrahydro-2H-pyran-4-yl)phthalazin-2(1H)-yl]acetamide] | 145 | 447 | –
11 | O=C(Cc1ccccc1Cl)Nn1nc(N2CCOCC2)c2ccccc2c1=O [Example 151, 2-(2-chlorophenyl)-N-[4-(morpholin-4-yl)-1-oxophthalazin-2(1H)-yl]acetamide] | 7.89 | – | –
12 | CC(C)(CC(=O)Nn1nc(N2CCOCC2)c2ccccc2c1=O)c1ccccc1 [Example 33, 3-methyl-N-[4-(morpholin-4-yl)-1-oxophthalazin-2(1H)-yl]-3-phenylbutanamide] | 131 | 1590 | –
13 | O=C(Cc1cc(F)cc(F)c1)Nn1nc(N2CCSCC2)c2ccccc2c1=O [Example 92, 2-(3,5-difluorophenyl)-N-[1-oxo-4-(thiomorpholin-4-yl)phthalazin-2(1H)-yl]acetamide] | 187 | 618 | –
14 | O=C(CC1CC2CCC1C2)Nn1nc(C(=O)Nc2ccc(Cl)cc2)c2ccccc2c1=O (racemic) [Example 108, (±)-3-{[(exo)-bicyclo[2.2.1]hept-2-ylacetyl]amino}-N-(4-chlorophenyl)-4-oxo-3,4-dihydrophthalazine-1-carboxamide] | 155 | 2040 | –
15 | CC(C)(C)OC(=O)NC(c1ccccc1)c1nn(NC(=O)CC2CC3CCC2C3)c(=O)c2ccccc12 (racemic) [Example 179, tert-butyl(±)-[(3-{[(exo)-bicyclo[2.2.1]hept-2-ylacetyl]amino}-4-oxo-3,4-dihydrophthalazin-1-yl)(phenyl)methyl]carbamate] | 185 | 267 | –
16 | Cc1cccc(CC(=O)Nn2nc(S(=O)(=O)c3ccccc3)c3ccccc3c2=O)c1 [Example 207, 2-(3-methylphenyl)-N-[1-oxo-4-(phenylsulfonyl)phthalazin-2(1H)-yl]acetamide] | 69.9 | 306 | –

Row | Structure (SMILES) | Emax (HEK293 KCNQ2/KCNQ3 cells) [%] | EC50 [nM] | % MAX (maximum response relative to the response of 10 μM retigabine (set at 100%), HEK293 KCNQ2/KCNQ3 cells) [%]
17 | CC(C(=O)NCC(C)(C)C)c1nn(NC(=O)Cc2ccc(Cl)cc2)c(=O)c2ccccc12 (stereo not shown) [Example 113, 2-(3-{[(4-chlorophenyl)acetyl]amino}-4-oxo-3,4-dihydrophthalazin-1-yl)-N-(2,2-dimethylpropyl)propanamide] | 21.8 | – | –
18 | CC(C(=O)NC(C)(C)C)c1nn(NC(=O)Cc2ccc(Cl)cc2)c(=O)c2ccccc12 (stereo not shown) [Example 112, N-tert-butyl-2-(3-{[(4-chlorophenyl)acetyl]amino}-4-oxo-3,4-dihydrophthalazin-1-yl)propanamide] | 17.1 | – | –
19 | O=C(Cc1cccc(O)c1)Nn1nc(N2CCOCC2)c2ccccc2c1=O [Example 143, 2-(3-hydroxyphenyl)-N-[4-(morpholin-4-yl)-1-oxophthalazin-2(1H)-yl]acetamide] | 43.8 | – | –
20 | O=C(CC1CC2CCC1C2)Nn1nc(-c2ccnc(O)c2)c2ccccc2c1=O (racemic) [Example 46, (±)-2-[(exo)-bicyclo[2.2.1]hept-2-yl]-N-[4-(2-hydroxypyridin-4-yl)-1-oxophthalazin-2(1H)-yl]acetamide] | 13.4 | – | –
21 | CC(C)(C)COC(=O)NCc1nn(NC(=O)Cc2ccc(Cl)cc2)c(=O)c2ccccc12 [Example 184, 2,2-dimethylpropyl[(3-{[(4-chlorophenyl)acetyl]amino}-4-oxo-3,4-dihydrophthalazin-1-yl)methyl]carbamate] | 62.7 | 1320 | –
22 | O=C(Cc1ccc(Cl)cc1)Nn1nc(Oc2ccccc2)c2ccccc2c1=O [Example 127, 2-(4-chlorophenyl)-N-(1-oxo-4-phenoxyphthalazin-2(1H)-yl)acetamide] | 87.4 | 180 | –
23 | O=C(Cc1ccccc1[N+](=O)[O-])Nn1nc(N2CCOCC2)c2ccccc2c1=O [Example 142, N-[4-(morpholin-4-yl)-1-oxophthalazin-2(1H)-yl]-2-(2-nitrophenyl)acetamide] | 1.59 | – | –
24 | CC(C(=O)O)c1nn(NC(=O)Cc2ccc(Cl)cc2)c(=O)c2ccccc12 (stereo not shown) [Example 110, 2-(3-{[(4-chlorophenyl)acetyl]amino}-4-oxo-3,4-dihydrophthalazin-1-yl)propanoic acid] | 2.26 | – | –
25 | CC(C)(CC(=O)Nn1nc(-c2ccc(Cl)nc2)c2ccccc2c1=O)c1ccccc1 [Example 27, N-[4-(6-chloropyridin-3-yl)-1-oxophthalazin-2(1H)-yl]-3-methyl-3-phenylbutanamide] | 134 | 261 | –
26 | O=C(Cc1cccc(C(F)(F)F)c1)Nn1nc(S(=O)(=O)c2ccccc2)c2ccccc2c1=O [Example 208, N-[1-oxo-4-(phenylsulfonyl)phthalazin-2(1H)-yl]-2-[3-(trifluoromethyl)phenyl]acetamide] | 33.3 | – | –
27 | O=C(Cc1cc(F)cc(F)c1)Nn1nc(SCc2ccccc2)c2ccccc2c1=O [Example 212, N-[4-(benzylsulfanyl)-1-oxophthalazin-2(1H)-yl]-2-(3,5-difluorophenyl)acetamide] | 109 | 152 | –
28 | O=C(Cc1ccc(Cl)cc1)Nn1nc(N2CCCC2)c2ccccc2c1=O [Example 21, 2-(4-chlorophenyl)-N-[1-oxo-4-(pyrrolidin-1-yl)phthalazin-2(1H)-yl]acetamide] | 136 | 198 | –
29 | O=C(Cc1ccc(Cl)cc1)Nn1nc(Sc2ccccc2)c2ccccc2c1=O [Example 58, 2-(4-chlorophenyl)-N-[1-oxo-4-(phenylsulfanyl)phthalazin-2(1H)-yl]acetamide] | 120 | 82.6 | –
30 | CC(C)[C@H]1CC[C@H](C)C[C@@H]1OC(=O)NCc1nn(NC(=O)Cc2ccc(Cl)cc2)c(=O)c2ccccc12 [Example 186, (1S,2R,5S)-5-methyl-2-(propan-2-yl)cyclohexyl[(3-{[(4-chlorophenyl)acetyl]amino}-4-oxo-3,4-dihydrophthalazin-1-yl)methyl]carbamate] | – | – | 11.8
31 | O=C(Cc1ccccc1)NCc1nn(NC(=O)Cc2ccc(Cl)cc2)c(=O)c2ccccc12 [Example 86, 2-(4-chlorophenyl)-N-[1-oxo-4-{[(phenylacetyl)amino]methyl}phthalazin-2(1H)-yl]acetamide] | 15.7 | – | –
32 | COc1ccc(CC(=O)Nn2nc(N3CCOCC3)c3ccccc3c2=O)c(OC)c1 [Example 170, 2-(2,4-dimethoxyphenyl)-N-[4-(morpholin-4-yl)-1-oxophthalazin-2(1H)-yl]acetamide] | 34.2 | – | –
